Measurements published in patent US11807627B2, “Morphic forms of complement factor D inhibitors” (priority 2018, dated 2023).

Key:
Type in all cases: physicochemical
[1] = Hydration study in 2-propanol/water systems
Procedure: A hydration study of Compound 3 Form A was conducted using 4 different aw 2-propanol/water solvent systems. Approximately 20 mg of Compound 3 Form A was weighed into four 2 mL glass vials. An appropriate volume of solvent system was added to the solids and samples were agitated for about 48 hours under ambient conditions. After 48 hours, solids were isolated using centrifuge filtration and analyzed by XRPD. […] (FIG. 32)

[2] = Polymorph study: anti-solvent addition
Procedure: Anti-solvent additions were completed on saturated solutions of Compound 3 produced from temperature cycling experiments. Precipitation of solids was observed (before anti-solvent additions were completed) from selected solvent systems when storage under ambient conditions. Precipitated solids were analyzed by XRPD and re-dissolved using gentle heating and addition of minimal solvent. An appropriate anti-solvent was added to each saturated solution in 50μL aliquots until precipitation was observed or a total of 1 mL anti-solvent had been added. Samples where solids were precipitated were isolated using centrifuge filtration and analyzed by XRPD. […] Samples where solids had precipitated were isolated using centrifuge filtration and analyzed by XRPD (Table 20A and Table 20B).

[3] = Polymorph study: evaporation
Procedure: Saturated solutions of Compound 3 produced from temperature cycling experiments were evaporated under ambient conditions. After approximately 4 days, observations were made, and solids recovered were analyzed by XRPD (Table 21).

[4] = Grinding study; settings: pestle and mortar
Procedure: 10 mg of the appropriate Compound 3 material (detailed in Table 28) was weighed into separate HPLC vials. The solids were then ground using a pestle and mortar. Resulting materials were analyzed by XRPD (FIG. 47). From samples where mixtures of forms were used, mixtures of forms were recovered. Where all 3 forms were used, Form A was not returned, although it is possible that the already small particle size of Form A was reduced further by grinding and therefore not detected by XRPD analysis.

[5] = Compression study (25 kN, 50 kN; Example 13)
Procedure: A mixture of Form A ±Form B and Form B were compressed using a specac IR die press. A total of approximately 100 mg (50 mg A ±50 mg B and 100 mg B) were weighed into separate 2 mL glass vials. The solids were then placed into the IR dies and pressed under 25 kN and 50 kN for about 10-15 seconds. After pressing to 25 kN, material was removed from the dies and ground slightly. A sub-sample was taken and XRPD analysis was collected. Material was then placed back into the dies and pressed to 50 kN. After pressing to 50 kN, material was removed from the dies and ground slightly before collecting XRPD analysis. Both samples observed a small color change from white to off-white after being pressed to 25 kN. […] No single form was observed when compressing a mixture of Forms A and form B material, but a decrease in crystallinity was observed when exerting 50 kN on the mixture.

[6] = X-ray powder diffraction (XRPD); settings: Table 27A
Procedure: Most XRPD patterns were collected with a PANalytical X′Pert PRO MPD diffractometer using an incident beam of Cu Kα radiation produced using a long, fine-focus source and a nickel filter. The diffractometer was configured using the symmetric Bragg-Brentano geometry. Prior to the analysis, a silicon specimen (NIST SRM 640e) was analyzed to verify the observed position of the Si 111 peak is consistent with the NIST-certified position. A specimen of the sample was prepared as a thin, circular layer centered on a silicon zero-background substrate. Antiscatter slits (SS) were used to minimize the background generated by air. Soller slits for the incident and diffracted beams were used to minimize broadening from axial divergence. Diffraction patterns were collected using a scanning position-sensitive detector (X′Celerator) located 240 mm from the sample and Data Collector software v. 2.2b.
A few XRPD patterns were collected with a PANalytical X′Pert PRO MPD diffractometer using an incident beam of Cu radiation produced using an Optix long, fine-focus source. […] Prior to the analysis, a silicon specimen (NIST SRM 640e) was analyzed to verify the observed position of the Si 111 peak is consistent with the NIST-certified position. A specimen of the sample was sandwiched between 3-μm-thick films and analyzed in transmission geometry. […]

[7] = 50% 2-Propanol / 50% Heptane (% v/v)
[8] = 70% 2-Propanol / 30% Heptane (% v/v)
[9] = 70% 2-Propanol / 30% Water (% v/v) aw = 0.8
[10] = 95% Heptane / 5% 2-Propanol (% v/v)
[11] = 95% Methanol / 5% Water (% v/v) calc. aw = 0.2

SMILES: CC(=O)c1nn(CC(=O)N2[C@H](C(=O)Nc3nc(Br)ccc3C)C[C@@]3(C)C[C@@H]23)c2ccc(-c3cnc(C)nc3)cc12 [Compound 3 Form A]
- Hydration study: XRPD results ([1]; Water activity (aw) 0.354, 2-propanol/water, about 48 hours, ambient): Form A
- Hydration study: XRPD results ([1]; Water activity (aw) 0.526): Form A
- Hydration study: XRPD results ([1]; Water activity (aw) 0.704): Predominantly amorphous
- Hydration study: XRPD results ([1]; Water activity (aw) 0.910): Predominantly amorphous

SMILES: CC(=O)c1nn(CC(=O)N2[C@H](C(=O)Nc3nc(Br)ccc3C)C[C@@]3(C)C[C@@H]23)c2ccc(-c3cnc(C)nc3)cc12 [Compound 3, (1R,3S,5R)-2-(2-(3-acetyl-5-(2-methylpyrimidin-5-yl)-1H-indazol-1-yl)acetyl)-N-(6-bromo-3-methylpyridin-2-yl)-5-methyl-2-azabicyclo[3.1.0]hexane-3-carboxamide]
- Crystallization technique: Anti-solvent Additions ([2]; 1-Butanol, *solids that precipitated under ambient conditions, WC = weakly crystalline): Form A (WC) *
- XRPD analysis after re- dissolution and storage at 4° C. for ca. 48 hours ([2]; 1-Butanol, WC = weakly crystalline): WC Form A
- XRPD analysis after re- dissolution and storage at 4° C. for ca. 48 hours ([2]; 2-Propanol): Form A
- Crystallization technique: Anti-solvent Additions ([2]; 2-Propanol, *solids that precipitated under ambient conditions): Form A*
- Crystallization technique: Anti-solvent Additions ([2]; 40% Ethanol / 60% Water (% v/v) calc. aw = 0.7, *solids that precipitated under ambient conditions): Mixture L + M*
- Observation after re-dissolution and anti-solvent addition [2, 7]: Clear solution
- Observations after storage in the fridge for ca. 48 hours [2, 7]: Clear solution
- Crystallization technique: Anti-solvent Additions ([2]; 50% 2-Propanol / 50% Heptane (% v/v), *solids that precipitated under ambient conditions, WC = weakly crystalline): Form A (WC) *
- Crystallization technique: Anti-solvent Additions ([2]; 50% Ethanol / 50% Heptane (% v/v), *solids that precipitated under ambient conditions): Form A*
- XRPD analysis after re- dissolution and storage at 4° C. for ca. 48 hours ([2]; 50% Ethanol:50% Heptane (% v/v)): Form A
- Observation after re-dissolution and anti-solvent addition [2, 8]: Clear solution
- Observations after storage in the fridge for ca. 48 hours [2, 8]: Clear solution
- Observations after storage in the fridge for ca. 48 hours ([2]; 70% 2-Propanol / 30% Heptane (% v/v) re-prepared sample): Clear solution
- Crystallization technique: Anti-solvent Additions ([2]; 70% 2-Propanol / 30% Heptane (% v/v), *solids that precipitated under ambient conditions): Mixture L + M*
- Crystallization technique: Anti-solvent Additions [2, 9]: Clear solution
- Observations after storage in the fridge for ca. 48 hours [2, 9]: Clear solution
- XRPD analysis after re- dissolution and storage at 4° C. for ca. 48 hours ([2]; 95% 2-Propanol / 5% Heptane (% v/v)): Form A
- Crystallization technique: Anti-solvent Additions ([2]; 95% 2-Propanol / 5% Heptane (% v/v), *solids that precipitated under ambient conditions): Form A*
- Observations after storage in the fridge for ca. 48 hours [2, 10]: Clear solution
- Crystallization technique: Anti-solvent Additions [2, 11]: Clear solution
- Observations after storage in the fridge for ca. 48 hours ([2]; 95% Methanol:5% Water (% v/v) calc. aw = 0.2): Clear solution
- XRPD analysis after re- dissolution and storage at 4° C. for ca. 48 hours ([2]; Acetone): Form A
- Crystallization technique: Anti-solvent Additions ([2]; Acetone, *solids that precipitated under ambient conditions): Form A*
- Observations after storage in the fridge for ca. 48 hours ([2]; Acetonitrile): Clear solution
- XRPD analysis after re- dissolution and storage at 4° C. for ca. 48 hours ([2]; Ethanol): Form A
- Crystallization technique: Anti-solvent Additions ([2]; Ethanol, *solids that precipitated under ambient conditions): Form A*
- Observations after storage in the fridge for ca. 48 hours ([2]; Ethyl Acetate (dry)): White solid
- XRPD analysis after re- dissolution and storage at 4° C. for ca. 48 hours ([2]; Ethyl Acetate (dry)): Amorphous
- Crystallization technique: Anti-solvent Additions ([2]; Ethyl Acetate (dry), *solids that precipitated under ambient conditions): Form A*
- Crystallization technique: Anti-solvent Additions ([2]; Methanol): Clear solution
- Observations after storage in the fridge for ca. 48 hours ([2]; Methanol): Clear solution
- Crystallization technique: Anti-solvent Additions ([2]; Methylethyl Ketone): Form A
- Crystallization technique: Anti-solvent Additions ([2]; Methylisobutyl Ketone): Form B
- Crystallization technique: Anti-solvent Additions ([2]; Tetrahydrofuran): Form A
- Crystallization technique: Anti-solvent Additions ([2]; Toluene): Amorphous
- Crystallization technique: Anti-solvent Additions ([2]; n-Heptane): Clear solution
- Crystallization technique: Evaporations ([3]; 1-Butanol): Amorphous
- Crystallization technique: Evaporations ([3]; 2-Methyl Tetrahydrofuran, WC = weakly crystalline): Form A (WC)
- Crystallization technique: Evaporations ([3]; 2-Propanol): Amorphous
- Crystallization technique: Evaporations ([3]; 40% Ethanol / 60% Water (% v/v) calc. aw = 0.7): Amorphous
- Crystallization technique: Evaporations [3, 7]: Amorphous
- Crystallization technique: Evaporations ([3]; 50% Acetonitrile / 50% Water (% v/v) calc. aw = 0.9): Amorphous
- Crystallization technique: Evaporations ([3]; 50% Ethanol / 50% Heptane (% v/v)): Amorphous
- Crystallization technique: Evaporations [3, 9]: Amorphous
- Crystallization technique: Evaporations ([3]; 95% 2-Propanol / 5% Heptane (% v/v), WC = weakly crystalline): Form A (WC)
- Crystallization technique: Evaporations [3, 10]: Amorphous
- Crystallization technique: Evaporations [3, 11]: Amorphous
- Crystallization technique: Evaporations ([3]; Acetone, WC = weakly crystalline): Form A (WC)
- Crystallization technique: Evaporations ([3]; Acetonitrile): Amorphous
- Crystallization technique: Evaporations ([3]; Ethanol, WC = weakly crystalline): Form A (WC)
- Crystallization technique: Evaporations ([3]; Ethyl Acetate (dry)): Amorphous
- Crystallization technique: Evaporations ([3]; Methanol): Amorphous
- Crystallization technique: Evaporations ([3]; Methylethyl Ketone): Amorphous
- Crystallization technique: Evaporations ([3]; Methylisobutyl Ketone): Amorphous
- Crystallization technique: Evaporations ([3]; Toluene): Amorphous
- Crystallization technique: Evaporations ([3]; n-Heptane): Amorphous
- Crystallization technique: Evaporations ([3]; tert-Butylmethyl Ether, WC = weakly crystalline): WC (Pattern E)

SMILES: CC(=O)c1nn(CC(=O)N2[C@H](C(=O)Nc3nc(Br)ccc3C)C[C@@]3(C)C[C@@H]23)c2ccc(-c3cnc(C)nc3)cc12 [Form B]
- Form change upon grinding (XRPD) [4]: did not change form
- Form change under compression (XRPD) ([5]; 25 kN and 50 kN): did not change under pressure
- XRPD Results ([5]; Pressure Exerted 25 kN): Form B
- XRPD Results ([5]; Pressure Exerted 50 kN): Form B
- XRPD [6]: Form B
